Results as given in patent publication US9513294B2, “Megastokes amino-triazolyl-BODIPY compounds and applications to live neuron staining and human serum albumin FA1 drug site probing” (National University of Singapore, priority 2012, dated 2016).

What was measured:
[1] = Absorbance and fluorescence emission spectra (SpectraMax M2); type: physicochemical
Procedure: BDC-8 (Blue): absorbance λmax=473 nm, emission λmax=585 nm; MK101-8 (Green): absorbance λmax=474 nm, emission λmax=563 nm; MKHA374-48 (Yellow): absorbance λmax=468 nm, λem=557 nm. The corresponding spectra of a reported BODIPY (BD-27; Red) are also included for comparison: absorbance λmax=551 nm, emission λmax=568 nm. The structures of BDC-8, MK101-8, MKHA374-48 and BD-27 are also depicted.
(§1) ^1H-NMR, ^19F-NMR and ^13C-NMR spectra were recorded on Bruker ACF300 (300 MHz), DPX300 (300 MHz) and AMX500 (500 MHz) spectrometers. High resolution mass spectra (ESI) were obtained on a Finnigan/MAT 95XL-T spectrometer. Spectroscopic and quantum yield data were measured on a SpectraMax M2 spectrophotometer (Molecular Devices). Data analysis was performed using GraphPrism 5.0. Analytical characterization was performed on a HPLC-MS (Agilent-1200 series) with a DAD detector and a single quadrupole mass spectrometer (6130 series) with an ESI probe. Analytical HPLC method: eluents, A: H2O (0.1% HCOOH), B: CH3CN (0.1% HCOOH), gradient 5% B to 95% B (10 min). Reverse-phase Phenomenex C18 Luna column (4.6×50 mm^2, 3.5 […]), flow rate: 1 mL/min.

[2] = Quantum yield measurements versus Acridine Yellow in EtOH; type: physicochemical; conditions: excitation 460 nm
Procedure: as §1
Quantum yields were calculated by measuring the integrated emission area of the fluorescent spectra and comparing to the area measured for Acridine Yellow in EtOH when excited at 460 nm (Φfluorescence^AcridineYellow=0.47). Quantum yields for the amino-triazolyl-BODIPYs were calculated using the equation below, where F represents the area of fluorescent emission, η is the refractive index of the solvent, and Abs is absorbance at the excitation wavelength selected for standards and samples. Emission was integrated between 510 and 700 nm.

Structure (SMILES) | λmax Absorp. ([1]; BDCAC library, Table 3) [nm] | λmax Emission ([1]; BDCAC library, Table 3) [nm] | φ (quantum yield) ([2]; BDCAC library, Table 3) [%] | λmax Absorp. ([1]; BDCCA library, Table 4) [nm] | λmax Emission ([1]; BDCCA library, Table 4) [nm] | φ (quantum yield) ([2]; BDCCA library, Table 4) [%]
COc1ccc2cc(-c3cn(-c4ccc5n4[B-](F)(F)[N+]4=C(N6CCCCC6)C=CC4=C5c4ccc(NC(C)=O)cc4)nn3)ccc2c1 [BDCAC-22] | 465 | 585 | 1.2 |  |  | 
CC(=O)Nc1ccc(C2=C3C=CC(N4CCCCC4)=[N+]3[B-](F)(F)n3c2ccc3-n2cc(-c3ccc(-c4ccccc4)cc3)nn2)cc1 [BDCAC-23] | 465 | 574 | 1.3 |  |  | 
CC(=O)Nc1ccc(C2=C3C=CC(N4CCCCC4)=[N+]3[B-](F)(F)n3c2ccc3-n2cc(-c3ccc(F)cc3F)nn2)cc1 [BDCAC-26] | 465 | 567 | 1.3 |  |  | 
COc1cccc(-c2cn(-c3ccc4n3[B-](F)(F)[N+]3=C(N5CCCCC5)C=CC3=C4c3ccc(NC(C)=O)cc3)nn2)c1 [BDCAC-27] | 464 | 555 | 2.1 |  |  | 
CCCCCc1ccc(-c2cn(-c3ccc4n3[B-](F)(F)[N+]3=C(N5CCCCC5)C=CC3=C4c3ccc(NC(C)=O)cc3)nn2)cc1 [BDCAC-29] | 465 | 561 | 1.6 |  |  | 
CC(=O)Nc1ccc(C2=C3C=CC(N4CCCCC4)=[N+]3[B-](F)(F)n3c2ccc3-n2cc(-c3cc(C(F)(F)F)cc(C(F)(F)F)c3)nn2)cc1 [BDCAC-30] | 459 | 549 | 3.5 |  |  | 
CC(=O)Nc1ccc(C2=C3C=CC(N4CCCCC4)=[N+]3[B-](F)(F)n3c2ccc3-n2cc(-c3cccc(F)c3)nn2)cc1 [BDCAC-31] | 463 | 569 | 0.9 |  |  | 
CC(=O)Nc1ccc(C2=C3C=CC(N4CCCCC4)=[N+]3[B-](F)(F)n3c2ccc3-n2cc(CCC(C)C)nn2)cc1 [BDCAC-36] | 467 | 585 | 0.8 |  |  | 
CC(=O)Nc1ccc(C2=C3C=CC(N4CCCCC4)=[N+]3[B-](F)(F)n3c2ccc3-n2cc(C3=CCCCC3)nn2)cc1 [BDCAC-37] | 466 | 565 | 1.9 |  |  | 
CCCCc1cn(-c2ccc3n2[B-](F)(F)[N+]2=C(N4CCCCC4)C=CC2=C3c2ccc(NC(C)=O)cc2)nn1 [BDCAC-42] | 467 | 577 | 1.3 |  |  | 
CC(=O)Nc1ccc(C2=C3C=CC(N4CCCCC4)=[N+]3[B-](F)(F)n3c2ccc3-n2cc(CC(C)C)nn2)cc1 [BDCAC-43] | 467 | 581 | 0.8 |  |  | 
CCCCCCCCc1cn(-c2ccc3n2[B-](F)(F)[N+]2=C(N4CCCCC4)C=CC2=C3c2ccc(NC(C)=O)cc2)nn1 [BDCAC-44] | 468 | 581 | 0.8 |  |  | 
CC(=O)Nc1ccc(C2=C3C=CC(N4CCCCC4)=[N+]3[B-](F)(F)n3c2ccc3-n2cc(-c3cccc(C)c3)nn2)cc1 [BDCAC-45] | 463 | 551 | 3.2 |  |  | 
CCc1ccc(-c2cn(-c3ccc4n3[B-](F)(F)[N+]3=C(N5CCCCC5)C=CC3=C4c3ccc(NC(C)=O)cc3)nn2)cc1 [BDCAC-46] | 465 | 578 | 1.4 |  |  | 
CCCCCCc1cn(-c2ccc3n2[B-](F)(F)[N+]2=C(N4CCCCC4)C=CC2=C3c2ccc(NC(C)=O)cc2)nn1 [BDCAC-47] | 467 | 562 | 1.4 |  |  | 
CCCc1cn(-c2ccc3n2[B-](F)(F)[N+]2=C(N4CCCCC4)C=CC2=C3c2ccc(NC(C)=O)cc2)nn1 [BDCAC-48] | 467 | 576 | 1.6 |  |  | 
CCCCCCCCCCc1cn(-c2ccc3n2[B-](F)(F)[N+]2=C(N4CCCCC4)C=CC2=C3c2ccc(NC(C)=O)cc2)nn1 [BDCAC-49] | 467 | 575 | 1.3 |  |  | 
CCCCCCCc1cn(-c2ccc3n2[B-](F)(F)[N+]2=C(N4CCCCC4)C=CC2=C3c2ccc(NC(C)=O)cc2)nn1 [BDCAC-50] | 467 | 567 | 1.4 |  |  | 
CC(=O)Nc1ccc(C2=C3C=CC(N4CCCCC4)=[N+]3[B-](F)(F)n3c2ccc3-n2cc(C3(O)CCCC3)nn2)cc1 [BDCAC-67] | 469 | 592 | 0.8 |  |  | 

Structure (SMILES) | λmax Absorp. ([1]; BDCAC library, Table 3) [nm] | λmax Emission ([1]; BDCAC library, Table 3) [nm] | φ (quantum yield) ([2]; BDCAC library, Table 3) [%] | λmax Absorp. ([1]; BDCCA library, Table 4) [nm] | λmax Emission ([1]; BDCCA library, Table 4) [nm] | φ (quantum yield) ([2]; BDCCA library, Table 4) [%]
CC(=O)Nc1ccc(C2=C3C=CC(N4CCCCC4)=[N+]3[B-](F)(F)n3c2ccc3-n2cc(CO)nn2)cc1 [BDCAC-70] | 467 | 583 | 0.7 |  |  | 
CC(C)(C)c1cn(-c2ccc3n2[B-](F)(F)[N+]2=C(N4CCCCC4)C=CC2=C3c2ccc(NC(=O)CCl)cc2)nn1 [BDCCA-1] |  |  |  | 468 | 581 | 0.7
CN(C)Cc1cn(-c2ccc3n2[B-](F)(F)[N+]2=C(N4CCCCC4)C=CC2=C3c2ccc(NC(=O)CCl)cc2)nn1 [BDCCA-2] |  |  |  | 461 | 586 | 0.4
O=C(CCl)Nc1ccc(C2=C3C=CC(N4CCCCC4)=[N+]3[B-](F)(F)n3c2ccc3-n2cc(C3CC3)nn2)cc1 [BDCCA-4] |  |  |  | 467 | 577 | 1.1
O=C(CCl)Nc1ccc(C2=C3C=CC(N4CCCCC4)=[N+]3[B-](F)(F)n3c2ccc3-n2cc(C3CCCC3)nn2)cc1 [BDCCA-5] |  |  |  | 468 | 588 | 0.9
O=C(CCl)Nc1ccc(C2=C3C=CC(N4CCCCC4)=[N+]3[B-](F)(F)n3c2ccc3-n2cc(C3CCCCC3)nn2)cc1 [BDCCA-6] |  |  |  | 467 | 555 | 2.3
O=C(CCl)Nc1ccc(C2=C3C=CC(N4CCCCC4)=[N+]3[B-](F)(F)n3c2ccc3-n2cc(CC3CCCC3)nn2)cc1 [BDCCA-7] |  |  |  | 468 | 590 | 0.9
O=C(CCl)Nc1ccc(C2=C3C=CC(N4CCCCC4)=[N+]3[B-](F)(F)n3c2ccc3-n2cc(CC3CCCCC3)nn2)cc1 [BDCCA-8] |  |  |  | 468 | 589 | 0.6
O=C(CCl)Nc1ccc(C2=C3C=CC(N4CCCCC4)=[N+]3[B-](F)(F)n3c2ccc3-n2cc(-c3ccccc3)nn2)cc1 [BDCCA-9] |  |  |  | 464 | 577 | 1.1
Cc1ccc(-c2cn(-c3ccc4n3[B-](F)(F)[N+]3=C(N5CCCCC5)C=CC3=C4c3ccc(NC(=O)CCl)cc3)nn2)cc1 [BDCCA-10] |  |  |  | 463 | 558 | 2.9
CC(C)(C)c1ccc(-c2cn(-c3ccc4n3[B-](F)(F)[N+]3=C(N5CCCCC5)C=CC3=C4c3ccc(NC(=O)CCl)cc3)nn2)cc1 [BDCCA-11] |  |  |  | 464 | 587 | 1.3
CCCCc1ccc(-c2cn(-c3ccc4n3[B-](F)(F)[N+]3=C(N5CCCCC5)C=CC3=C4c3ccc(NC(=O)CCl)cc3)nn2)cc1 [BDCCA-12] |  |  |  | 464 | 552 | 1.6
CN(C)c1ccc(-c2cn(-c3ccc4n3[B-](F)(F)[N+]3=C(N5CCCCC5)C=CC3=C4c3ccc(NC(=O)CCl)cc3)nn2)cc1 [BDCCA-13] |  |  |  | 467 | 627 | 0.1
COc1cc(OC)cc(-c2cn(-c3ccc4n3[B-](F)(F)[N+]3=C(N5CCCCC5)C=CC3=C4c3ccc(NC(=O)CCl)cc3)nn2)c1 [BDCCA-14] |  |  |  | 463 | 589 | 0.8
O=C(CCl)Nc1ccc(C2=C3C=CC(N4CCCCC4)=[N+]3[B-](F)(F)n3c2ccc3-n2cc(-c3ccc(OC(F)(F)F)cc3)nn2)cc1 [BDCCA-15] |  |  |  | 462 | 537 | 2.2
O=C(CCl)Nc1ccc(C2=C3C=CC(N4CCCCC4)=[N+]3[B-](F)(F)n3c2ccc3-n2cc(-c3ccc(F)c(F)c3)nn2)cc1 [BDCCA-16] |  |  |  | 462 | 581 | 0.7
O=C(CCl)Nc1ccc(C2=C3C=CC(N4CCCCC4)=[N+]3[B-](F)(F)n3c2ccc3-n2cc(COc3ccccc3)nn2)cc1 [BDCCA-17] |  |  |  | 464 | 584 | 0.7
CN(Cc1ccccc1)Cc1cn(-c2ccc3n2[B-](F)(F)[N+]2=C(N4CCCCC4)C=CC2=C3c2ccc(NC(=O)CCl)cc2)nn1 [BDCCA-18] |  |  |  | 465 | 587 | 0.7
